Numbered stars: 1 amine (or outer) side, 2 acyl side, 3 side chain; on linkers, the order of the positions; unused ones are H or OH. Square brackets hold non-standard residues; d marks the D form. Side chains are listed from the residue outwards. Peptide text beside a SMILES is read from it. * marks the point of attachment. DOTA = O=C(O)CN1CCN(CC(=O)O)CCN(CC(=O)*)CCN(CC(=O)O)CC1; d(γGlu) = O=C(O)[C@@H](CCC(=O)[*:2])N[*:1]; 1Nal = N[C@@H](Cc1cccc2ccccc12)C(=O)O; NMeNle = CCCC[C@H](NC)C(=O)O; PEG4 = NCCOCCOCCOCCOCCC(=O)O
Test: Ex vivo biodistribution of 177Lu-labeled compound
Design: species or system BALB/c nude mice
Details: mouse, in vivo
Protocol: To evaluate the biodistribution of [^177Lu]Lu-DOTA-CCK2R-dimer, AR42J tumor-bearing mice received intravenous (i.v.) injections of 3.7 MBq (≈ 120 pmol) of [^177Lu]Lu-DOTA-CCK2R-dimer (dissolved in 200 μL of saline; n = 3/group), and Mice were sacrificed at 1, 4, 24, 48, 72, and 96 h post-injection. The tissues of interest were excised, weighed, and analyzed for radioactivity using a γ-counter.
All animal studies were approved by the Ethics Committee of Fudan University Shanghai Cancer Center (No. FUSCC-IACUC- S2023- 0003). Five-week-old female BALB/c nude mice were purchased from Shanghai SLAC Laboratory Animal
Company. To establish cell-derived xenograft (CDX) models, 1 × 10⁶ AR42J cells (100 μL) were subcutaneously inoculated into the right shoulder of each mouse. […]
Radioactivity levels were measured using a gamma counter, with decay correction applied based on the injection time. The percentage of injected dose per gram of tissue (%ID/g) was calculated for each time point. […]

For `CCCC[C@@H](C(=O)N[C@@H](CC(=O)O)C(=O)N[C@@H](Cc1cccc2ccccc12)C(N)=O)N(C)C(=O)[C@H](Cc1c[nH]c2ccccc12)NC(=O)CCOCCOCCOCCOCCNC(=O)CC[C@@H](NC(=O)CC[C@H](NC(=O)CN1CCN(CC(=O)O)CCN(CC(=O)O)CCN(CC(=O)O)CC1)C(=O)N[C@H](CCC(=O)NCCOCCOCCOCCOCCC(=O)N[C@@H](Cc1c[nH]c2ccccc12)C(=O)N(C)[C@@H](CCCC)C(=O)N[C@@H](CC(=O)O)C(=O)N[C@@H](Cc1cccc2ccccc12)C(N)=O)C(=O)O)C(=O)O` [[177Lu]Lu-DOTA-CCK2R-dimer, metal not drawn] ({DOTA}-E([d(γGlu)-PEG4-Trp-NMeNle-Asp-1Nal-NH2])[d(γGlu)][PEG4]W[NMeNle]D[1Nal]-NH2), which tissue uptake at 48 h (Bladder uptake) is on record?
The tissue uptake at 48 h was 0.03 ± 0.01 %ID/g.

And the tissue uptake at 72 h (Bladder uptake)?
The tissue uptake at 72 h was 0.06 ± 0.03 %ID/g.

And the tissue uptake at 96 h (Bladder uptake)?
The tissue uptake at 96 h was 0.1 ± 0.05 %ID/g.

What about the tissue uptake at 1 h (Blood uptake) of the same compound?
Its tissue uptake at 1 h is 6.93 ± 1.84 %ID/g.

What about the tissue uptake at 4 h (Blood uptake) of the same compound?
Its tissue uptake at 4 h is 1.19 ± 0.3 %ID/g.

And the tissue uptake at 24 h (Blood uptake)?
The tissue uptake at 24 h was 0.05 ± 0.01 %ID/g.

And the tissue uptake at 48 h (Blood uptake)?
Its tissue uptake at 48 h is 0.02 ± 0.01 %ID/g.

What about the tissue uptake at 72 h (Blood uptake) of the same compound?
The tissue uptake at 72 h was 0.002 ± 0.0005 %ID/g.

And the tissue uptake at 96 h (Blood uptake)?
The tissue uptake at 96 h was 0.008 ± 0.007 %ID/g.

And the tissue uptake at 1 h (Bone uptake)?
The tissue uptake at 1 h was 0.65 ± 0.27 %ID/g.

And the tissue uptake at 4 h (Bone uptake)?
Its tissue uptake at 4 h is 0.35 ± 0.19 %ID/g.

What about the tissue uptake at 24 h (Bone uptake) of the same compound?
Its tissue uptake at 24 h is 0.04 ± 0.02 %ID/g.

What about the tissue uptake at 48 h (Bone uptake) of the same compound?
The tissue uptake at 48 h was 0.004 ± 0.001 %ID/g.

And the tissue uptake at 72 h (Bone uptake)?
Its tissue uptake at 72 h is 0.03 ± 0.02 %ID/g.

And the tissue uptake at 96 h (Bone uptake)?
Its tissue uptake at 96 h is 0.02 ± 0.01 %ID/g.

What about the tissue uptake at 1 h (Brain uptake) of the same compound?
The tissue uptake at 1 h was 0.14 ± 0.01 %ID/g.

What about the tissue uptake at 4 h (Brain uptake) of the same compound?
The tissue uptake at 4 h was 0.03 ± 0.01 %ID/g.

And the tissue uptake at 24 h (Brain uptake)?
The tissue uptake at 24 h was 0.003 ± 0.002 %ID/g.

What about the tissue uptake at 48 h (Brain uptake) of the same compound?
The tissue uptake at 48 h was 0.003 ± 0.002 %ID/g.

What about the tissue uptake at 72 h (Brain uptake) of the same compound?
The tissue uptake at 72 h was 0.004 ± 0.003 %ID/g.

What about the tissue uptake at 96 h (Brain uptake) of the same compound?
The tissue uptake at 96 h was 0.006 ± 0.002 %ID/g.

And the tissue uptake at 1 h (Heart uptake)?
Its tissue uptake at 1 h is 1.29 ± 0.41 %ID/g.

What about the tissue uptake at 4 h (Heart uptake) of the same compound?
The tissue uptake at 4 h was 0.67 ± 0.34 %ID/g.

And the tissue uptake at 24 h (Heart uptake)?
Its tissue uptake at 24 h is 0.05 ± 0.03 %ID/g.

And the tissue uptake at 48 h (Heart uptake)?
Its tissue uptake at 48 h is 0.02 ± 0.02 %ID/g.

And the tissue uptake at 72 h (Heart uptake)?
Its tissue uptake at 72 h is 0.02 ± 0.008 %ID/g.

And the tissue uptake at 96 h (Heart uptake)?
The tissue uptake at 96 h was 0.03 ± 0.01 %ID/g.

And the tissue uptake at 1 h (Kidney uptake)?
Its tissue uptake at 1 h is 8.92 ± 1.05 %ID/g.

What about the tissue uptake at 4 h (Kidney uptake) of the same compound?
The tissue uptake at 4 h was 6.79 ± 1.58 %ID/g.

What about the tissue uptake at 24 h (Kidney uptake) of the same compound?
The tissue uptake at 24 h was 3.43 ± 0.84 %ID/g.

What about the tissue uptake at 48 h (Kidney uptake) of the same compound?
Its tissue uptake at 48 h is 1.59 ± 1 %ID/g.

And the tissue uptake at 72 h (Kidney uptake)?
Its tissue uptake at 72 h is 1.6 ± 0.39 %ID/g.

What about the tissue uptake at 96 h (Kidney uptake) of the same compound?
The tissue uptake at 96 h was 1 ± 0.5 %ID/g.

What about the tissue uptake at 1 h (Large intestine uptake) of the same compound?
Its tissue uptake at 1 h is 1.14 ± 0.38 %ID/g.

What about the tissue uptake at 4 h (Large intestine uptake) of the same compound?
The tissue uptake at 4 h was 0.61 ± 0.03 %ID/g.

And the tissue uptake at 24 h (Large intestine uptake)?
Its tissue uptake at 24 h is 0.07 ± 0.01 %ID/g.

And the tissue uptake at 48 h (Large intestine uptake)?
The tissue uptake at 48 h was 0.05 ± 0.02 %ID/g.

What about the tissue uptake at 72 h (Large intestine uptake) of the same compound?
The tissue uptake at 72 h was 0.04 ± 0.03 %ID/g.

What about the tissue uptake at 96 h (Large intestine uptake) of the same compound?
The tissue uptake at 96 h was 0.05 ± 0.03 %ID/g.

And the tissue uptake at 1 h (Liver uptake)?
The tissue uptake at 1 h was 4.44 ± 1.8 %ID/g.

What about the tissue uptake at 4 h (Liver uptake) of the same compound?
The tissue uptake at 4 h was 3.42 ± 0.75 %ID/g.

What about the tissue uptake at 24 h (Liver uptake) of the same compound?
The tissue uptake at 24 h was 0.61 ± 0.11 %ID/g.

And the tissue uptake at 48 h (Liver uptake)?
Its tissue uptake at 48 h is 0.58 ± 0.16 %ID/g.

What about the tissue uptake at 72 h (Liver uptake) of the same compound?
Its tissue uptake at 72 h is 0.37 ± 0.05 %ID/g.

And the tissue uptake at 96 h (Liver uptake)?
The tissue uptake at 96 h was 0.42 ± 0.11 %ID/g.

And the tissue uptake at 1 h (Lung uptake)?
The tissue uptake at 1 h was 2.4 ± 0.05 %ID/g.

And the tissue uptake at 4 h (Lung uptake)?
The tissue uptake at 4 h was 1.06 ± 0.39 %ID/g.

And the tissue uptake at 24 h (Lung uptake)?
The tissue uptake at 24 h was 0.04 ± 0.03 %ID/g.

And the tissue uptake at 48 h (Lung uptake)?
The tissue uptake at 48 h was 0.02 ± 0.01 %ID/g.

And the tissue uptake at 72 h (Lung uptake)?
The tissue uptake at 72 h was 0.01 ± 0.01 %ID/g.

And the tissue uptake at 96 h (Lung uptake)?
The tissue uptake at 96 h was 0.02 ± 0.005 %ID/g.

And the tissue uptake at 1 h (Muscle uptake)?
Its tissue uptake at 1 h is 0.36 ± 0.1 %ID/g.

What about the tissue uptake at 4 h (Muscle uptake) of the same compound?
Its tissue uptake at 4 h is 0.16 ± 0.17 %ID/g.

What about the tissue uptake at 24 h (Muscle uptake) of the same compound?
The tissue uptake at 24 h was 0.01 ± 0.01 %ID/g.

And the tissue uptake at 48 h (Muscle uptake)?
Its tissue uptake at 48 h is 0.007 ± 0.003 %ID/g.

What about the tissue uptake at 72 h (Muscle uptake) of the same compound?
The tissue uptake at 72 h was 0.007 ± 0.002 %ID/g.

What about the tissue uptake at 96 h (Muscle uptake) of the same compound?
Its tissue uptake at 96 h is 0.006 ± 0.004 %ID/g.

And the tissue uptake at 1 h (Small intestine uptake)?
The tissue uptake at 1 h was 1.45 ± 0.39 %ID/g.

What about the tissue uptake at 4 h (Small intestine uptake) of the same compound?
Its tissue uptake at 4 h is 0.58 ± 0.31 %ID/g.

What about the tissue uptake at 24 h (Small intestine uptake) of the same compound?
Its tissue uptake at 24 h is 0.06 ± 0.04 %ID/g.

What about the tissue uptake at 48 h (Small intestine uptake) of the same compound?
The tissue uptake at 48 h was 0.06 ± 0.01 %ID/g.

What about the tissue uptake at 72 h (Small intestine uptake) of the same compound?
The tissue uptake at 72 h was 0.02 ± 0.01 %ID/g.

What about the tissue uptake at 96 h (Small intestine uptake) of the same compound?
Its tissue uptake at 96 h is 0.04 ± 0.03 %ID/g.

What about the tissue uptake at 1 h (Spleen uptake) of the same compound?
Its tissue uptake at 1 h is 2.62 ± 1.02 %ID/g.

And the tissue uptake at 4 h (Spleen uptake)?
The tissue uptake at 4 h was 2.23 ± 0.32 %ID/g.

What about the tissue uptake at 24 h (Spleen uptake) of the same compound?
The tissue uptake at 24 h was 0.15 ± 0.08 %ID/g.

And the tissue uptake at 48 h (Spleen uptake)?
Its tissue uptake at 48 h is 0.02 ± 0.01 %ID/g.

And the tissue uptake at 72 h (Spleen uptake)?
Its tissue uptake at 72 h is 0.05 ± 0.03 %ID/g.

And the tissue uptake at 96 h (Spleen uptake)?
Its tissue uptake at 96 h is 0.15 ± 0.09 %ID/g.

And the tissue uptake at 1 h (Stomach uptake)?
The tissue uptake at 1 h was 3.88 ± 0.66 %ID/g.

And the tissue uptake at 4 h (Stomach uptake)?
Its tissue uptake at 4 h is 3.05 ± 0.6 %ID/g.

And the tissue uptake at 24 h (Stomach uptake)?
The tissue uptake at 24 h was 1.07 ± 0.28 %ID/g.

What about the tissue uptake at 48 h (Stomach uptake) of the same compound?
Its tissue uptake at 48 h is 1.04 ± 0.17 %ID/g.

And the tissue uptake at 72 h (Stomach uptake)?
The tissue uptake at 72 h was 0.26 ± 0.11 %ID/g.

What about the tissue uptake at 96 h (Stomach uptake) of the same compound?
The tissue uptake at 96 h was 0.24 ± 0.3 %ID/g.

What about the tissue uptake at 1 h (Tumor uptake) of the same compound?
Its tissue uptake at 1 h is 19.2 ± 8.43 %ID/g.

What about the tissue uptake at 4 h (Tumor uptake) of the same compound?
The tissue uptake at 4 h was 14.7 ± 2.83 %ID/g.

What about the tissue uptake at 24 h (Tumor uptake) of the same compound?
Its tissue uptake at 24 h is 6.12 ± 1.45 %ID/g.

And the tissue uptake at 48 h (Tumor uptake)?
The tissue uptake at 48 h was 4.32 ± 0.75 %ID/g.

What about the tissue uptake at 72 h (Tumor uptake) of the same compound?
The tissue uptake at 72 h was 2.01 ± 0.47 %ID/g.

And the tissue uptake at 96 h (Tumor uptake)?
The tissue uptake at 96 h was 1.1 ± 0.04 %ID/g.

— PMC12439480, “Dimeric CCK2R radiotheranostic tracers synergize with mTOR inhibition for enhanced tumor therapy” (Theranostics, 2025)
